Test results reported in PMC11851430, “Workflow for E3 Ligase Ligand Validation for PROTAC Development” (ACS Chemical Biology, 2025).

How the values were obtained:
full-length AAK1 = full-length AAK1 (Homo sapiens, UniProt Q2M2I8); test: NanoBRET target engagement assay, intact and permeabilized cells
CAMKK2B = target: T1, CAMKK2B (Homo sapiens, UniProt Q96RR4); test: DSF assay; assay type: binding; conditions: 20 µM compound
T1 construct: purchased in-house DSF panel (SGC-style construct names; the trailing A/B is a construct suffix)
T1 sequence (Q96RR4 161-449): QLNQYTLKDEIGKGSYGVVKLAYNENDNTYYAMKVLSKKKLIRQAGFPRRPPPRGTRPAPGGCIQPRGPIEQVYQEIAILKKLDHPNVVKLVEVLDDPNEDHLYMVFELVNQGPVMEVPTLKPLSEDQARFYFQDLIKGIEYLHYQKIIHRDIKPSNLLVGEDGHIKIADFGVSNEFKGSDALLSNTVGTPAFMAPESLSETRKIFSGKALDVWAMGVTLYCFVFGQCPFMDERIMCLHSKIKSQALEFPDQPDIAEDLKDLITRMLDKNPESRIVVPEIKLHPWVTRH

MERTKA = target: T2, MERTKA (Homo sapiens, UniProt Q12866); test: DSF assay; assay type: binding; conditions: 20 µM compound
T2 construct: purchased in-house DSF panel (SGC-style construct names; the trailing A/B is a construct suffix)
T2 sequence (Q12866 574-864): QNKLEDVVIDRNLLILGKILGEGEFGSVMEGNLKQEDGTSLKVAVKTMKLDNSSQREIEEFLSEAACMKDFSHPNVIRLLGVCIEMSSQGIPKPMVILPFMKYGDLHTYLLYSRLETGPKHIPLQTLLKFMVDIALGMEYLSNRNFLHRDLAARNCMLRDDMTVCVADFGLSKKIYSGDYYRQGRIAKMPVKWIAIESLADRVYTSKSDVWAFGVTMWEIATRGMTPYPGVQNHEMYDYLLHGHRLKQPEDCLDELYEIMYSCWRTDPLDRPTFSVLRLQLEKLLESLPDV

CAMK2BA = target: T3, CAMK2BA (Homo sapiens, UniProt Q13554); test: DSF assay; assay type: binding; conditions: 20 µM compound
T3 construct: purchased in-house DSF panel (SGC-style construct names; the trailing A/B is a construct suffix)
T3 sequence (Q13554 11-303): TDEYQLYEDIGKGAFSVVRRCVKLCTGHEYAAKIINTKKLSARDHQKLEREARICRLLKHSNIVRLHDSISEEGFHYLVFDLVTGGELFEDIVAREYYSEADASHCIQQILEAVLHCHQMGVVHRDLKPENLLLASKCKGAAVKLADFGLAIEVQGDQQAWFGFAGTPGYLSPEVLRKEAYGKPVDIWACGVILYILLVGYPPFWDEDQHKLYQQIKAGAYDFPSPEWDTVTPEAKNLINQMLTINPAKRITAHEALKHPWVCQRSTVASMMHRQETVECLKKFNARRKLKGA

[1] = target: T4, kinase protein levels in MCF-7 cells (Homo sapiens, UniProt A0A096LP01); test: TMT-labeled quantitative proteomics; assay type: cell-based
T4 construct: endogenous in cells; host or cells: MCF-7
T4 sequence (A0A096LP01 whole entry): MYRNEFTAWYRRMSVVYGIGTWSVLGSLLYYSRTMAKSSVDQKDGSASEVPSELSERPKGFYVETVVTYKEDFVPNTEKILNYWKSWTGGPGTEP
Experimental: (§1) 50 µl of SDS Lysis Buffer (2% SDS, 50 mM TRIS pH 8.5, 10 mM TCEP, 40 mM CAA) was added to each sample. Cells were transferred into low binding reaction tubes (Eppendorf:
(§2) Methanol/Chloroform Precipitation. 200 µl of methanol and 50 µl of chloroform were added to each sample reaction tube and mixed via vortex. 150 µl of milliQ-H2O were added and samples were vortexed further. Samples were centrifuged for 5 minutes at 15000 g and the aqueous layer above the interphase was removed. 150 µl of methanol was added, samples were vortexed and centrifuged for 10 minutes at 15000 g to precipitate the pellet. The aforementioned wash procedure was repeated twice before transferring the pellet to a new low bind reaction tube in which it was allowed to dry for 5 minutes.
(§3) Dissolving the Protein Pellet and Protein Quantification. 50 µl of digestion buffer (8 M Urea, 50 mM TRIS pH 8) was added to each sample before vortexing and shaking at 750 rpm at room temperature for 10 minutes to solubilize the pellet. Protein quantification via PierceTM […]
(§4) Protein Digestion. Samples were diluted 1:2 with 50 mM TRIS pH 8.5 to reach a final concentration of 4 M Urea. Lys-C (Promega: VA1170) was added at a 1:100 enzyme/substrate ratio. Samples were agitated at 550 rpm and 37 °C for 3 h. Samples were further diluted with 50 mM TRIS pH 8.5 to a final concentration of 1 M Urea and Trypsin (Promega: V5280) was added at a 1:100 enzyme/substrate ratio. Samples were agitated overnight at 550 rpm and 37 °C. The digestion was stopped the following day via addition of TFA to a final concentration […]
(§5) Solid Phase Extraction via C18 Cartridges. Sep-Pak C18 Cartridges (Waters: WAT054955) were used for solid phase extraction of digested peptides. For preconditioning of C18 cartridges, 1 mL of methanol was added to each column followed by 1 mL of solution B (0.1% formic acid, 80% acetonitrile) and 1 mL of solution A (0.1% formic acid, ddH2O) twice. Samples […]
(§6) were loaded to their respective columns and once samples had passed, columns were washed twice with solution A to remove unwanted components from the loading step. Elution of samples was carried out via introduction of 40% and 60% acetonitrile steps. Samples were dried and snap frozen in liquid nitrogen.
(§7) TMT-Labeling. Desalted peptides were dried and resuspended in TMT-labeling buffer (200 mM EPPS pH 8.2, 20% acetonitrile). 10 μg of peptides per condition were subjected to TMT labeling with 1:2.5 peptide TMT ratio (w/w) for 1 h at room temperature. The labeling reaction was quenched by addition of hydroxylamine to a final concentration of 0.5% and incubation at room temperature for 15 minutes. Successful TMT labeling was verified by mixing equimolar ratios of peptides and subjecting the mix to single shot LC-MS/MS analysis. For high pH reversed phase fractionation on a Dionex analytical HPLC, 50 µg of pooled and purified TMT labelled samples were resuspended in 10 mM ammonium-bicarbonate (ABC), 5% acetonitrile, and separated on a 250 mm long C18 column (Aeris Peptide XB-C18, 4.6 mm ID, 2.6 µm particle size; Phenomenex) using a multistep gradient from 100% solvent A (5% acetonitrile, 10 mM ABC in water) to 60% solvent B (90% acetonitrile, 10 mM ABC in water) over 70 minutes. Eluting peptides were collected every 45 seconds into a total of 96 fractions, which were cross-concatenated into 24 fractions and dried in a vacuum concentrator and resuspended in 3% acetonitrile with 0.1% TFA for LC-MS analysis.
(§8) Mass spectrometry data acquisition. Tryptic peptides were analyzed on an Orbitrap Lumos coupled to an easy nLC 1200 (ThermoFisher Scientific) using a 35 cm long, 75 µm ID fused-silica column packed in house with 1.9 µm C18 particles (Reprosil pur, Dr. Maisch), and kept at 50 °C using an integrated column oven (Sonation). HPLC solvents consisted of 0.1% formic acid in water (buffer A) and 0.1% formic acid and 80% acetonitrile in water (buffer B). Assuming

[2] = test system: kinase protein levels in MCF-7 cells; test: TMT-labeled quantitative proteomics; assay type: cell-based, human; conditions: for kinase degradation: MCF-7 cells, 6 h
Experimental: as §1, §2, §3, §4, §5, §6, §7, §8

Jurkat cells = test: CellTiterGlo cell viability assay; assay type: cell-based, human; conditions: 24 h; for IC50: Homo sapiens, mean of triplicates, ^b/^c values estimated, read-out: IC50±sd/μM (cell viability)
How it was run: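 Jurkat cells treated with compound titrations; viability read by CellTiter-Glo 2.0 luminescence after 10 min at room temperature, fitted to a four-parameter curve. Proteomics samples lysed in 2% SDS, 50 mM Tris pH 8.5, TCEP and CAA, sonicated, then analysed by label-free quantitation.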

[3] = AAK1 intact (IC50±sd)/μM, NanoBRET, intact cells, mean of duplicates, ^a values estimated by extrapolation
[4] = AAK1 permeabilized (IC50±sd)/μM, NanoBRET, permeabilized cells, mean of duplicates
[5] = protein LINC00493, MCF7, 2.5 µM, set3
[6] = protein LINC00493, MCF, 0.25µM, set4
[7] = protein NBPF19;NBPF8;NBPF10;NBPF15;NBPF26;NBPF14;NBPF1;NBPF12, MCF, 0.25µM, set4
[8] = protein NBPF19;NBPF8;NBPF26;NBPF14;NBPF12;NBPF10;NBPF15;NBPF1, MCF7, 2.5 µM, set3
[9] = protein NBPF19;NBPF15;NBPF8;NBPF10;NBPF26;NBPF14, MCF7, 1 µM, set1.1
[10] = protein NUDT4, MCF7, 1 µM, set1.1
[11] = protein NUDT4;NUDT11;NUDT10, MCF, 0.25µM, set4
[12] = protein UQCRHL;UQCRH, MCF, 0.25µM, set4
[13] = protein SMIM26, MCF7, 1 µM, set2
[14] = protein LINC00493, MCF7, 1 µM, set5

Sequence of full-length AAK1 (Q2M2I8 whole entry): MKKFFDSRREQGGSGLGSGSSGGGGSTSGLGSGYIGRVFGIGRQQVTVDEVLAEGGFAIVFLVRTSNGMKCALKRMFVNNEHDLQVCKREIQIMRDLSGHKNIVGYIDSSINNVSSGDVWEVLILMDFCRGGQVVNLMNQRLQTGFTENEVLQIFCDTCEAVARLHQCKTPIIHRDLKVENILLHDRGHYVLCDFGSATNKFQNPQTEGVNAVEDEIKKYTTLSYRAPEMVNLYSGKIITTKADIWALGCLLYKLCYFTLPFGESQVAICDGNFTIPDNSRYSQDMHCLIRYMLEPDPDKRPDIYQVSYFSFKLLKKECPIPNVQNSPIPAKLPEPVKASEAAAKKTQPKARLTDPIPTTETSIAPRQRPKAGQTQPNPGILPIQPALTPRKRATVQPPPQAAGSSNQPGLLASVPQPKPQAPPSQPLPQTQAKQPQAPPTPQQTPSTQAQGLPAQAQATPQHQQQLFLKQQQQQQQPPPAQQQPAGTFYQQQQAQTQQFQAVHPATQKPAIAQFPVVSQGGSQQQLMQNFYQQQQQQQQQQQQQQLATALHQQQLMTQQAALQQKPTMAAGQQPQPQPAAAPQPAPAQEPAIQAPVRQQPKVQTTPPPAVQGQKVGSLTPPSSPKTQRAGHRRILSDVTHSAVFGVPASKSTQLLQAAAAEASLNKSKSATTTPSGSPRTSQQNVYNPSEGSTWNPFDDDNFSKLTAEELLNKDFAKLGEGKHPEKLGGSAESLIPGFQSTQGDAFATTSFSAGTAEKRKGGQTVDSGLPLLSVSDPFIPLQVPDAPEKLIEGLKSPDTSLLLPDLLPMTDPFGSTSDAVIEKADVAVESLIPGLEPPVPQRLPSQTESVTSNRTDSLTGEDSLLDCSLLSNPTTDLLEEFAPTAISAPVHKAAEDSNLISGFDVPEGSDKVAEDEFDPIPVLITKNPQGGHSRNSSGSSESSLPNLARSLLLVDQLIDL

Compound | IC50 (full-length AAK1; [3]) [µM] | IC50 (full-length AAK1; [4]) [µM] | P.Value (compound/DMSO) [1, 5] | log2FC (compound/DMSO) [1, 5] | P.Value (compound/DMSO) [1, 6] | log2FC (compound/DMSO) [1, 6] | IC50 (Jurkat cells) [µM] | kinase degradation ([2]; 0.25 μM) | kinase degradation ([2]; 1 μM) | kinase degradation ([2]; 2.5 μM) | log2FC (compound/DMSO) [2, 7] | log2FC (compound/DMSO) [2, 8] | log2FC (compound/DMSO) [2, 9] | log2FC (compound/DMSO) [2, 10] | log2FC (compound/DMSO) [2, 11] | log2FC (compound/DMSO) [2, 12] | further results
Cc1ncsc1-c1ccc(CNC(=O)[C@@H]2C[C@@H](O)CN2C(=O)[C@@H](NC(=O)CCOCCOCCOCCN2CCN(c3cc(Nc4cc(C5CC5)[nH]n4)nc(Nc4ccc(CC#N)cc4)n3)CC2)C(C)(C)C)cc1 [4-a] | 0.21 ± 0.044 | 0.057 ± 0.004 | 0.002092 | 0.3781 | 0.1285 | 0.1013 |  | Few kinases were degraded | significant degradation of several kinases | the number of degraded kinases was again lower | 0.1164 | 0.132 | -0.3973 | -0.04751 | 0.003804 | 0.8375 | 
CC(=O)N[C@H](C(=O)N1C[C@H](O)C[C@H]1C(=O)NCc1ccc(-c2scnc2C)cc1OCCOCCOCCOCCOCCC(=O)N1CCN(c2ccc(Nc3ncc(Cl)c(Nc4ccccc4C(N)=O)n3)cc2)CC1)C(C)(C)C [6-e] | 0.53 ± 0.246 | 0.123 ± 0.02 | 0.7735 | 0.04253 | 0.8916 | -0.008166 |  | no significantly degraded kinases were detected | did not result in significant degradation of any kinase | no significantly degraded kinases were detected | 0.2043 | 0.155 |  |  | -0.054 | -0.5234 | P.Value (compound/DMSO) [1, 13]: 0.2313; log2FC (compound/DMSO) [1, 13]: -0.1331; effect on cell viability (cytotoxicity) (Jurkat cells): no cytotoxicity was observed
CC(C)(C)OC(=O)NCCCOCCOCCOCCCNC(=O)c1cc(Nc2cc(C3CC3)[nH]n2)nc(Nc2ccc(CC#N)cc2)n1 [5-L] | 0.308 ± 0.032 | 0.07 ± 0.012 |  |  |  |  | 5.7 ± 1.5 |  |  |  |  |  |  |  |  |  | ΔTm at 20 µM (CAMKK2B): 10.7 °C; ΔTm at 20 µM (MERTKA): 2.15 °C; ΔTm at 20 µM (CAMK2BA): 0.97 °C
CC(=O)N[C@H](C(=O)N1C[C@H](O)C[C@H]1C(=O)NCc1ccc(-c2scnc2C)cc1OCCOCCOCCOCCNC(=O)c1cc(Nc2cc(C3CC3)[nH]n2)nc(Nc2ccc(CC#N)cc2)n1)C(C)(C)C [5-b] | 0.299 ± 0.038 | 0.192 ± 0.005 |  |  |  |  | ~18.7 |  | did not result in significant degradation of any kinase |  |  |  |  |  |  |  | P.Value (compound/DMSO) [1, 13]: 0.1541; log2FC (compound/DMSO) [1, 13]: -0.1317
Cc1ncsc1-c1ccc(CNC(=O)[C@@H]2C[C@@H](O)CN2C(=O)[C@@H](NC(=O)CCOCCOCCNC(=O)c2cc(Nc3cc(C4CC4)[nH]n3)nc(Nc3ccc(CC#N)cc3)n2)C(C)(C)C)cc1 [5-a] | ~8.76 | 0.162 ± 0.002 |  |  |  |  |  |  | did not result in significant degradation of any kinase |  |  |  | -0.2083 | -0.05063 |  |  | AAK1 intact (IC50±sd)/μM (full-length AAK1; NanoBRET, intact cells, mean of duplicates, ^a values estimated by extrapolation): single-digit micromolar; cell permeability / cell penetration (full-length AAK1; as shown by the NanoBRET data (intact vs permeabilized cells)): poor cell permeability

Molecules with a lower IC50 (full-length AAK1; [3]), results first:

IC50 (full-length AAK1; [3]) [µM] | IC50 (full-length AAK1; [4]) [µM] | P.Value (compound/DMSO) [1, 5] | log2FC (compound/DMSO) [1, 5] | P.Value (compound/DMSO) [1, 6] | log2FC (compound/DMSO) [1, 6] | IC50 (Jurkat cells) [µM] | Compound | kinase degradation ([2]; 0.25 μM) | kinase degradation ([2]; 1 μM) | kinase degradation ([2]; 2.5 μM) | log2FC (compound/DMSO) [2, 7] | log2FC (compound/DMSO) [2, 8] | log2FC (compound/DMSO) [2, 9] | log2FC (compound/DMSO) [2, 10] | log2FC (compound/DMSO) [2, 11] | log2FC (compound/DMSO) [2, 12] | further results
0.13 ± 0.003 | 0.055 ± 0.002 | 0.00484 | -0.4049 | 0.5319 | -0.03906 | 3.1 ± 0.8 | Cc1ncsc1-c1ccc(CNC(=O)[C@@H]2C[C@@H](O)CN2C(=O)[C@@H](NC(=O)CCOCCOCCOCCOCCN2CCN(c3ccc(Nc4ncc(Cl)c(Nc5ccccc5C(N)=O)n4)cc3)CC2)C(C)(C)C)cc1 [6-b] | Few kinases were degraded | significant degradation of several kinases | the number of degraded kinases was again lower | -0.06617 | -0.2581 | -0.7206 | -0.1525 | 0.182 | 0.8692 | 
0.1 ± 0.008 | 0.053 ± 0.003 |  |  |  |  | ~0.1 | Cc1ncsc1-c1ccc(CNC(=O)[C@@H]2C[C@@H](O)CN2C(=O)[C@@H](NC(=O)CCCCCCN2CCN(c3ccc(Nc4ncc(Cl)c(Nc5ccccc5C(N)=O)n4)cc3)CC2)C(C)(C)C)cc1 [6-d] |  | significant degradation of several kinases |  |  |  |  |  |  |  | P.Value (compound/DMSO) [1, 14]: 0.0001847; log2FC (compound/DMSO) [1, 14]: -0.9636; log2FC (compound/DMSO) ([2]; protein ARHGEF5;ARHGEF35, MCF7, 1 µM, set5): 0.09474; log2FC (compound/DMSO) ([2]; protein NBPF19;NBPF15;NBPF8;NBPF10;NBPF3;NBPF11;NBPF26;NBPF14;NBPF1;NBPF12, MCF7, 1 µM, set5): -0.4722; effect on cell viability (cytotoxicity) (Jurkat cells): particularly pronounced effects on cell viability
0.099 ± 0.011 | 0.023 ± 0.004 |  |  |  |  |  | CC(C)(C)OC(=O)NCCOCCOCCOCCOCCC(=O)N1CCN(c2cc(Nc3cc(C4CC4)[nH]n3)nc(Nc3ccc(CC#N)cc3)n2)CC1 [4-L] |  |  |  |  |  |  |  |  |  | ΔTm at 20 µM (CAMKK2B): 15.4 °C; ΔTm at 20 µM (MERTKA): 4.52 °C; ΔTm at 20 µM (CAMK2BA): -0.09 °C
